These results are taken from publication PMC8720282 (ACS chemical biology, 2021).

The structures appear in SMILES notation.

This series has as its system defibrinated rabbit red blood cells. In words: Hemolysis assay. The format is cell-based. To be noted: defibrinated rabbit RBCs, triplicate on three separate days.

Take `CC(C)(C)CC(C)(C)c1ccc(OCCO)cc1` [Triton X]: the “hemolysis in THY media alone” value was “significant degree of hemolysis”.
